Patent US11266715B2, “C3A receptor agonists for use against ischemic brain injury, stroke, traumatic brain injury, spinal cord injury and neurodegenerative disorders” (priority 2016, dated 2022)

Columns and labels:
[1] = test system: microglia and astrocytes; conditions: in vitro; cited from earlier work
[2] = test system: GAP-43+ puncta; test: GAP-43 immunostaining of cortex 21 days after stroke; format: in vivo, mouse
Method: For immunofluorescent evaluation, sections were deparaffinized, heated three times for 5 min in a microwave oven in 0.01 M citric buffer (pH 6.0), and blocked in PBS containing 0.05% Tween-20 (Sigma) and 1% in Bovine serum albumin (BSA, Sigma) for GAP-43 and synapsin I staining, 3% normal goat serum for VGLUT1 staining or 4% normal donkey serum for GAP-43 double stainings. Goat anti-synapsin la/b antibody (1:150; Santa Cruz, sc-7379) was followed by biotin-conjugated donkey anti-goat immunoglobulin (Ig) secondary antibody (1:200; Jackson Research Lab, 705-065-147) and Cy3-conjugated streptavidin (1:100; Sigma). Guinea pig anti-VGLUT1 (1:500; Millipore, AB5905) was followed by Alexa Fluor 488 goat anti-guinea pig Ig (1:500; Molecular Probes, A11073). For single staining, mouse anti-GAP-43 antibody (1:1000; Millipore, MAB347), was followed by biotinylated rabbit anti-mouse Ig secondary antibody (1:200; Dako, E0354) and Cy3-conjugated streptavidin (1:100; Sigma). […]
Highest signal intensity single plane images of immunostained sections were obtained by laser scanning confocal microscope (LSM TCS SP2, Leica Microsystems, ×63/NA 1.3 objective for synapsin I and GAP-43; and LSM 700, Carl Zeiss for VGLUT1 ×40/NA 1.3) at 1024×1024 pixels resolution. […] Three standard sections per animal in 160 μm intervals were analysed. […]
Single-stained images were analysed using MetaMorph® software (Molecular Devices, ver. 2.8.5) to obtain number, average size and intensity of positive punctuate structures per image. […] An experimenter blinded to experimental group performed all image acquisitions and quantifications.

## C3a: Purified human C3a peptide (Complement Technologies), C3a receptor agonist, amino acid sequence SEQ ID NO: 1
[1]
  NGF expression: induces upregulation of neural growth factor (NGF)
[2]; C3a-treated mice, P=0.012
  increase in density of GAP-43+ puncta, ipsilesional motor cortex vs corresponding contralesional region: ~50%
[2]; P=0.015
  increase in density of GAP-43+ puncta, ipsilesional motor cortex vs ipsilesional cortex of PBS-treated mice: ~50%
[2]; between experimental groups
  average size of GAP-43+ puncta: did not differ between the experimental groups
